Measurements reported in PubChem BioAssay (NCI).
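At the GI50, growth is halved. At the TGI there is no net growth.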

Columns and labels:
Assay in all cases: NCI tumour cell line growth inhibition, 384-well format
[1] = system: 786-0 renal
[2] = system: A498 renal
[3] = system: A549 NSCLC
[4] = system: ACHN renal
[5] = system: BT-549 breast
[6] = system: CAKI-1 renal
[7] = system: CCRF-CEM leukemia
[8] = system: COLO 205 colon
[9] = system: DU-145 prostate
[10] = system: HCC-2998 colon
[11] = system: HCT-116 colon
[12] = system: HCT-15 colon
[13] = system: HL-60(TB) leukemia
[14] = system: HOP-62 NSCLC
[15] = system: HOP-92 NSCLC
[16] = system: HT29 colon
[17] = system: IGROV1 ovarian
[18] = system: K-562 leukemia
[19] = system: KM12 colon
[20] = system: LOX IMVI melanoma
[21] = system: M14 melanoma
[22] = system: MALME-3M melanoma
[23] = system: MCF7 breast
[24] = system: MDA-MB-231 breast
[25] = system: MDA-MB-435 melanoma
[26] = system: MDA-MB-468 breast
[27] = system: MOLT-4 leukemia
[28] = system: NCI-H226 lung

With `C=CC(=O)N1CCN(c2nc(OC[C@@H]3CCCN3C)nc3c2CCN(c2cccc4cccc(C)c24)C3)C[C@@H]1CC#N` the GI50 [1] was 0.705 µM, the TGI [1] was 1.99 µM and the GI50 [2] was 0.485 µM. For the same compound, the TGI [2] was 1.7 µM, the GI50 [3] was 1.31 µM and the TGI [3] was 2.61 µM. The GI50 [4] was 0.35 µM, the TGI [4] was 1.6 µM and the GI50 [5] was 0.265 µM. The TGI [5] was 0.999 µM, the GI50 [6] was 0.422 µM and the TGI [6] was 1.43 µM. For the same compound, the GI50 [7] was 0.133 µM, the TGI [7] was 0.265 µM and the GI50 [8] was 1.23 µM. For the same compound, the TGI [8] was 2.49 µM, the GI50 [9] was 1.4 µM and the TGI [9] was 2.71 µM. The GI50 [10] was 1.23 µM, the TGI [10] was 2.49 µM and the GI50 [11] was 0.526 µM. For the same compound, the TGI [11] was 1.74 µM, the GI50 [12] was 1.01 µM and the TGI [12] was 2.19 µM. For the same compound, the GI50 [13] was 0.181 µM, the TGI [13] was 0.322 µM and the GI50 [14] was < 0.01 µM. The TGI [14] was 1.12 µM, the GI50 [15] was 0.223 µM and the TGI [15] was 0.687 µM. The GI50 [16] was 1.26 µM, the TGI [16] was 2.54 µM and the GI50 [17] was 1.39 µM. The TGI [17] was 2.7 µM, the GI50 [18] was 0.918 µM and the TGI [18] was 2.13 µM. It also gave a GI50 [19] of 1.06 µM, a TGI [19] of 2.26 µM and a GI50 [20] of 1.59 µM. The TGI [20] was 2.95 µM, the GI50 [21] was 1.27 µM and the TGI [21] was 2.53 µM. It also gave a GI50 [22] of 1.22 µM, a TGI [22] of 2.46 µM and a GI50 [23] of 0.834 µM. The TGI [23] was 2.09 µM, the GI50 [24] was 0.312 µM and the TGI [24] was 1.27 µM. For the same compound, the GI50 [25] was 1.22 µM, the TGI [25] was 2.48 µM and the GI50 [26] was 0.367 µM. It also gave a TGI [26] of 1.02 µM, a GI50 [27] of 0.16 µM and a TGI [27] of 0.299 µM. It also gave a GI50 [28] of 1.16 µM and a TGI [28] of 2.39 µM.
